Assay results published in patent US20040044008A1, “Use of therapeutic benzamide derivatives” (priority 2000, published 2004).
pIC50: −log10 of the molar value.

Experiments:
human MTP = human MTP (Homo sapiens, UniProt P55157); assay: human MTP activity assay (SPA, 3H-triolein transfer between liposomes); format: biochemical; conditions: human MTP-mediated 3H-triolein transfer from donor to acceptor liposomes, 25 min incubation at 37° C., streptavidin-SPA beads
Excerpt: Such derivatives are clear to those skilled in the art, without undue experimentation, and with reference to the teaching of Burger's Medicinal Chemistry And Drug Discovery, 5th Edition, Vol 1: Principles And Practice, which is incorporated herein by reference. […] MTP inhibitors may be used in the treatment of non-insulin dependent diabetes mellitus, insulin resistance, coronary heart disease, prevention of stroke, pancreatitis, hypercholesterolemia, hypertriglyceridemia, hyperlipemia, mixed dyslipidemia, post-prandial hyperlipemia, atherosclerosis and obesity. The ability of the compounds of this invention to inhibit human MTP activity is measured by an in vitro assay where MTP transfers 3H-triolein between phosphatidylcholine liposomes. The specificity of the compounds of the invention is established by comparing the effects on apoB-100 and apoprotein A-1 production. A specificity of at least 100 is preferred.
The human MTP activity assay was established using SPA technology. Donor liposomes were prepared with 3H-triolein and phosphatidylcholine, while acceptor liposomes contained biotinylated phosphatidylethanolamine and phosphatidylcholine. The MTP-mediated 3H-triolein transfer onto acceptor liposomes was allowed by a 25 min incubation at 37° C., and quantified by the addition of streptavidin-SPA beads.

Chain of human MTP (P55157 19-894): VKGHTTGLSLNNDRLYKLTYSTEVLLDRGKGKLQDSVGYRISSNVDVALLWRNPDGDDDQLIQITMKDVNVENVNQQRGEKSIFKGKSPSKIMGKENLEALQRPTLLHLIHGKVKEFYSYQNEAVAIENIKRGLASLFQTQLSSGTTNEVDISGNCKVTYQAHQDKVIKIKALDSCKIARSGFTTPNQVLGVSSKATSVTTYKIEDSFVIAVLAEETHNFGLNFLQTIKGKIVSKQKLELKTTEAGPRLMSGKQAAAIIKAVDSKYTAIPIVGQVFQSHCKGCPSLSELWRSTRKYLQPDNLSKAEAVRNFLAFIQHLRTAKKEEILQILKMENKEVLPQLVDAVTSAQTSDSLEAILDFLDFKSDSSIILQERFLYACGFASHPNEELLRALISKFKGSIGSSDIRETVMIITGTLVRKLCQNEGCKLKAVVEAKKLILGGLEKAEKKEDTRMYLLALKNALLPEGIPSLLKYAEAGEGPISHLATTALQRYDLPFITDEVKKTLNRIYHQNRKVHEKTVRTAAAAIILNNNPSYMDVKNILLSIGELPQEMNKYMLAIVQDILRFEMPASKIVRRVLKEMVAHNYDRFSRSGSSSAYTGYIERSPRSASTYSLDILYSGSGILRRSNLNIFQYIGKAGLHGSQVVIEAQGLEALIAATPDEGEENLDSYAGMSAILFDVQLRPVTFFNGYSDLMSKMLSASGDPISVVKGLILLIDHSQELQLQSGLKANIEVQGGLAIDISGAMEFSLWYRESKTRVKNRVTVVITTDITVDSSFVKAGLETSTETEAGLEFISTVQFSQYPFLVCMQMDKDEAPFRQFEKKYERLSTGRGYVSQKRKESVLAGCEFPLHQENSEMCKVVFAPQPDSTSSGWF
Chain of human MTP (P07237 18-508 partner): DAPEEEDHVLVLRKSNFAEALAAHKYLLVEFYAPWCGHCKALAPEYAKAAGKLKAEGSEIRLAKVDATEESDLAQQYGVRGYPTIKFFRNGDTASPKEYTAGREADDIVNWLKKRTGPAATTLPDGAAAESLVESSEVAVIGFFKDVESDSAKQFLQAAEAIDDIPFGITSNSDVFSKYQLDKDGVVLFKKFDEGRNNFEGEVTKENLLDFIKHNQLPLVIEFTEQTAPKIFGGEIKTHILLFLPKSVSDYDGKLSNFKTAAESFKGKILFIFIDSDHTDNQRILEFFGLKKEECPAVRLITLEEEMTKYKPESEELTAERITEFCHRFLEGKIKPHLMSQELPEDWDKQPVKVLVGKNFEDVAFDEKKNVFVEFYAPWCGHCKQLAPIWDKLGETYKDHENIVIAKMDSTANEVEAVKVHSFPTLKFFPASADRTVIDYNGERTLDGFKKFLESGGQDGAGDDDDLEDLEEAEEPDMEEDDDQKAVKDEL

Compound | pIC50 (human MTP) | melting point [°C]
O=C(Nc1ccc(N2CCN(Cc3ccc[nH]3)CC2)cc1)c1ccccc1-c1ccc(C(F)(F)F)cc1 [Example 62, 4′-Trifluoromethyl-biphenyl-2-carboxylic acid [4-(4-(1H-pyrrol-2-ylmethyl)-piperazin-1-yl)-phenyl]-amide] | 9.52 | 
Cc1ccc(C(=O)Nc2ccc(N3CCN(Cc4cccc(C#N)c4)CC3)cc2)c(-c2ccc(C(C)C)cc2)c1 [Example 2, 4′-Isopropyl-5-methyl-biphenyl-2-carboxylic acid [4-[4-(3-cyano-benzyl)-piperazin-1-yl]-phenyl]-amide] | 9.52 | 
Cc1cccc(C(=O)Nc2ccc(N3CCN(Cc4cccc(C#N)c4)CC3)cc2)c1-c1ccc(C(F)(F)F)cc1 [Example 5, 6-Methyl-4′-trifluoromethyl-biphenyl-2-carboxylic acid [4-[4-(3-cyano-benzyl)-piperazin-1-yl]-phenyl]-amide] | 9.70 | 
COc1cccc(C(=O)Nc2ccc(N3CCN(CC(N)=O)CC3)cc2)c1-c1ccc(C(C)C)cc1 [Example 38, 4′-Isopropyl-6-methoxy-biphenyl-2-carboxylic acid [4-(4-carbamoylmethyl-piperazin-1-yl)-phenyl]-amide] | 9.52 | 
5-Methyl-4′-trifluoromethyl-biphenyl-2-carboxylic acid [-(4-(1H-pyrrol-2-ylmethyl)-piperazin-1-yl)-phenyl]-amide [Example 64] | 9.59 | 
Cc1ccc(C(=O)Nc2ccc(N3CCN(Cc4ccc[nH]4)CC3)cc2)c(-c2ccc(C(C)C)cc2)c1 [Example 63, 4′-Isopropyl-5-methyl-biphenyl-2-carboxylic acid [4-(4-(1H-pyrrol-2-ylmethyl)-piperazin-1-yl)-phenyl]-amide] | 9.15 | 
Cc1noc(-c2cccc(CN3CCN(c4ccc(NC(=O)c5cccc(C)c5-c5ccc(C(C)C)cc5)cc4)CC3)c2)n1 [Example 61, 4′-Isopropyl-6-methyl-biphenyl-2-carboxylic acid (4-(4-(3-(3-methyl-[1,2,4]oxadiazol-5-yl)-benzyl)-piperazine-1-yl)-phenyl)-amide] | 9.70 | 
Cc1ccc(C(=O)Nc2ccc(N3CCN(Cc4cccc(-c5nc(C)no5)c4)CC3)cc2)c(-c2ccc(C(C)C)cc2)c1 [Example 6] | 9.52 | 
COc1cccc(C(=O)Nc2ccc(N3CCN(Cc4cccc(C#N)c4)CC3)cc2)c1-c1ccc(C(C)C)cc1 [Example 3, 4′-Isopropyl-6-methoxy-biphenyl-2-carboxylic acid [4-[4-(3-cyano-benzyl)-piperazin-1-yl]-phenyl]-amide] | 9.70 | 
Cc1cccc(C(=O)Nc2ccc(N3CCN(Cc4cccc(C#N)c4)CC3)cc2)c1-c1ccc(C(C)C)cc1 [Example 4, 4′-Isopropyl-6-methyl-biphenyl-2-carboxylic acid [4-[4-(3-cyano-benzyl)-piperazin-1-yl]-phenyl]-amide] | 9.70 | 
Cc1cccc(C(=O)Nc2ccc(N3CCN(CC(N)=O)CC3)cc2)c1-c1ccc(C(C)C)cc1 [Example 39, 4′-Isopropyl-6-methyl-biphenyl-2-carboxylic acid (4-(4-carbamoylmethyl-piperazin-1-yl)-phenyl]-amide] | 9.52 | 
O=C(Nc1ccc(N2CCN(Cc3cccc(-c4noc(C(F)(F)F)n4)c3)CC2)cc1)c1ccccc1-c1ccc(C(F)(F)F)cc1 [Example 75, 4′-Trifluoromethyl-biphenyl-2-carboxylic acid (4-{4-[3-(5-trifluoromethyl-[1,2,4]oxadiazol-3-yl)-benzyl]-piperazin-1-yl}-phenyl)-amide] |  | 188 to 190
COc1ccc(-c2ccccc2C(=O)Nc2ccc(N3CCN(Cc4cccc(C#N)c4)CC3)cc2)cc1OC [Example 26, 3′,4′-Dimethoxy-biphenyl-2-carboxylic acid [4-[4-(3-cyano-benzyl)-piperazin-1-yl]-phenyl]-amide] |  | 116 to 120
O=C(Nc1ccc(N2CCN(Cc3ccncc3)CC2)cc1)c1ccccc1-c1ccc(C(F)(F)F)cc1 |  | 194 to 196
NC(=O)CN1CCN(c2ccc(NC(=O)c3ccccc3-c3ccc(C(F)(F)F)cc3)cc2)CC1 [Example 37, 4′-Trifluoromethyl-biphenyl-2-carboxylic acid [4-(4-carbamoylmethyl-piperazin-1-yl)-phenyl]-amide] | 8.10 | 
COc1cccc(C(=O)Nc2ccc(N3CCN(Cc4cccc(C#N)c4)CC3)cc2)c1-c1ccc(C(F)(F)F)cc1 [Example 8, 6-Methoxy-4′-trifluoromethyl-biphenyl-2-carboxylic acid [4-[4-(3-cyano-benzyl)-piperazin-1-yl]-phenyl]-amide] |  | 215 to 217
O=C(Nc1ccc(N2CCN(Cc3ccc4c(c3)OCO4)CC2)cc1)c1ccccc1-c1ccc(C(F)(F)F)cc1 [Example 48, 4′-Trifluoromethyl-biphenyl-2-carboxylic acid [4-(4-(3,4-methylenedioxy-benzyl)-piperazin-1-yl)-phenyl]-amide] |  | 189 to 191
N#Cc1cccc(CN2CCN(c3ccc(NC(=O)c4ccccc4-c4cccc(C(F)(F)F)c4)cc3)CC2)c1 [Example 22, 3′-Trifluoromethyl-biphenyl-2-carboxylic acid [4-[4-(3-cyano-benzyl)-piperazin-1-yl]-phenyl]-amide] |  | 117 to 121
N#Cc1cccc(CN2CCN(c3ccc(NC(=O)c4ccccc4-n4cccc4)cc3)CC2)c1 [Example 85, N-{4-[4-(3-Cyano-benzyl)-piperazin-1-yl]-phenyl}-2-pyrrol-1-yl-benzamide] |  | 174
Cc1ccc(-c2ccccc2C(=O)Nc2ccc(N3CCN(Cc4cccc(C#N)c4)CC3)cc2)c(C)c1 |  | 72 to 76
